This note sets out measurements from US9340590B2 (priority 2011, dated 2016).

Molecules are shown by their SMILES. Positions of bridges follow the written chain, without caps; N, C: chain ends. Residues, ends and D or L forms follow the SMILES beside them.

Experiment in all cases: cell-based
The target of one assay is hNav1.3 (Homo sapiens, UniProt Q9NY46). As to conditions: IonWorks Quattro, use-dependent block, hNav1.3; read-out: IWQ Use Nav1.3.
The target in another assay is hNav1.7 (Homo sapiens, UniProt Q15858). Type of assay: cell-based. The conditions noted are these: IonWorks Quattro, use-dependent block, hNav1.7; read-out: IWQ Use Nav1.7.
Sequence of hNav1.7 (Q15858 whole entry, looked up): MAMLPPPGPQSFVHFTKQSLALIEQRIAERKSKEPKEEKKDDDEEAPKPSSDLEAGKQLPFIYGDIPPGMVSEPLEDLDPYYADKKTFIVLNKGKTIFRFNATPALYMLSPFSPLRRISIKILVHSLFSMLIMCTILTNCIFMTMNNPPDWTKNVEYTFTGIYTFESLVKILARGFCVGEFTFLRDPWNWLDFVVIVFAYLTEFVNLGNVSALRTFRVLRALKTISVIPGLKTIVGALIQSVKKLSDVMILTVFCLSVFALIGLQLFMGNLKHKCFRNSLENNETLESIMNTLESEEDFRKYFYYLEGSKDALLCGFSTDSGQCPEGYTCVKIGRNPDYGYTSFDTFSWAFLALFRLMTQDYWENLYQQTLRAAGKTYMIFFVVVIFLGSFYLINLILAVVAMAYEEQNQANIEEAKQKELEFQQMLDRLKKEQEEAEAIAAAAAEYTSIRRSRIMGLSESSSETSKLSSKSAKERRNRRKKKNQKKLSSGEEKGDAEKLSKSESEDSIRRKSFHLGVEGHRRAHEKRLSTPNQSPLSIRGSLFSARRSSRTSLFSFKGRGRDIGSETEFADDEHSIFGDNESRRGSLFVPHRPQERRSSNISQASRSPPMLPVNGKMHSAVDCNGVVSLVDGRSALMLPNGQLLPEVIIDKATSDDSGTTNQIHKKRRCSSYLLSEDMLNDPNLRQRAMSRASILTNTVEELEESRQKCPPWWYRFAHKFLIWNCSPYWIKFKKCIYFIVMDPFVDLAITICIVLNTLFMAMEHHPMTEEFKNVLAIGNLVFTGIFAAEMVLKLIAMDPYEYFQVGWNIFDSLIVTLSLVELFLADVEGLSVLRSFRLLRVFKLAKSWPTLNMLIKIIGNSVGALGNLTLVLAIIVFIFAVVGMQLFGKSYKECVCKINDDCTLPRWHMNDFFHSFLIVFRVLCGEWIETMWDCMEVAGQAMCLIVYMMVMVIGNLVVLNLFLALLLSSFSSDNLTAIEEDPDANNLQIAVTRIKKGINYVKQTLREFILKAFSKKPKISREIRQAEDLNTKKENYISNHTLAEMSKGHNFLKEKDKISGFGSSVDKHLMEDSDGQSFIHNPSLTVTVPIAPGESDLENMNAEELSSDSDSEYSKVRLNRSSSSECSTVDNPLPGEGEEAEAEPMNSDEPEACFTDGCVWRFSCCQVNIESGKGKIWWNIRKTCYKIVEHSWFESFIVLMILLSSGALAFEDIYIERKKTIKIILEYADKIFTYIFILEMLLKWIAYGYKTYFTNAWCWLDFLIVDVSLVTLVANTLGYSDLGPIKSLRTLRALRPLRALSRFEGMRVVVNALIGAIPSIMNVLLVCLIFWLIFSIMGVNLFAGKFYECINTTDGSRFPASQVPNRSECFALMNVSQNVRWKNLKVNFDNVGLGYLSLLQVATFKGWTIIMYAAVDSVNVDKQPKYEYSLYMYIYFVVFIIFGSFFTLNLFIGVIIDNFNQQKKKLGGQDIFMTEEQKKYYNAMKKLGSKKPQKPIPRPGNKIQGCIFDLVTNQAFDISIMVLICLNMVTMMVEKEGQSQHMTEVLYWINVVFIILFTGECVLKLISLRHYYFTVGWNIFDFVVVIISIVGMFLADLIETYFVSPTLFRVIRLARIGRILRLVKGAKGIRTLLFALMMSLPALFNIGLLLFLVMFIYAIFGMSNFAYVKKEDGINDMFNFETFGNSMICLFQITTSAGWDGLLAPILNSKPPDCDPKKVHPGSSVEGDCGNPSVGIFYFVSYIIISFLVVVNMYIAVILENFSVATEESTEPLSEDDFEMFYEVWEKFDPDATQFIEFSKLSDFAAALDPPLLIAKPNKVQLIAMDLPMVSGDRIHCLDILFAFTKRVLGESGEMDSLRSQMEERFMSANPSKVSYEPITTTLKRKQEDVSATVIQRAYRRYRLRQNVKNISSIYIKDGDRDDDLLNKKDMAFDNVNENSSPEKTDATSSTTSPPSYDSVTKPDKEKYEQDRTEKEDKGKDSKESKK
The target in a further assay is hNav1.5 (Homo sapiens, UniProt Q14524). The conditions noted are these: IonWorks Quattro, use-dependent block, hNav1.5; read-out: IWQ Use Nav1.5.
Sequence of hNav1.5 (Q14524 whole entry, looked up): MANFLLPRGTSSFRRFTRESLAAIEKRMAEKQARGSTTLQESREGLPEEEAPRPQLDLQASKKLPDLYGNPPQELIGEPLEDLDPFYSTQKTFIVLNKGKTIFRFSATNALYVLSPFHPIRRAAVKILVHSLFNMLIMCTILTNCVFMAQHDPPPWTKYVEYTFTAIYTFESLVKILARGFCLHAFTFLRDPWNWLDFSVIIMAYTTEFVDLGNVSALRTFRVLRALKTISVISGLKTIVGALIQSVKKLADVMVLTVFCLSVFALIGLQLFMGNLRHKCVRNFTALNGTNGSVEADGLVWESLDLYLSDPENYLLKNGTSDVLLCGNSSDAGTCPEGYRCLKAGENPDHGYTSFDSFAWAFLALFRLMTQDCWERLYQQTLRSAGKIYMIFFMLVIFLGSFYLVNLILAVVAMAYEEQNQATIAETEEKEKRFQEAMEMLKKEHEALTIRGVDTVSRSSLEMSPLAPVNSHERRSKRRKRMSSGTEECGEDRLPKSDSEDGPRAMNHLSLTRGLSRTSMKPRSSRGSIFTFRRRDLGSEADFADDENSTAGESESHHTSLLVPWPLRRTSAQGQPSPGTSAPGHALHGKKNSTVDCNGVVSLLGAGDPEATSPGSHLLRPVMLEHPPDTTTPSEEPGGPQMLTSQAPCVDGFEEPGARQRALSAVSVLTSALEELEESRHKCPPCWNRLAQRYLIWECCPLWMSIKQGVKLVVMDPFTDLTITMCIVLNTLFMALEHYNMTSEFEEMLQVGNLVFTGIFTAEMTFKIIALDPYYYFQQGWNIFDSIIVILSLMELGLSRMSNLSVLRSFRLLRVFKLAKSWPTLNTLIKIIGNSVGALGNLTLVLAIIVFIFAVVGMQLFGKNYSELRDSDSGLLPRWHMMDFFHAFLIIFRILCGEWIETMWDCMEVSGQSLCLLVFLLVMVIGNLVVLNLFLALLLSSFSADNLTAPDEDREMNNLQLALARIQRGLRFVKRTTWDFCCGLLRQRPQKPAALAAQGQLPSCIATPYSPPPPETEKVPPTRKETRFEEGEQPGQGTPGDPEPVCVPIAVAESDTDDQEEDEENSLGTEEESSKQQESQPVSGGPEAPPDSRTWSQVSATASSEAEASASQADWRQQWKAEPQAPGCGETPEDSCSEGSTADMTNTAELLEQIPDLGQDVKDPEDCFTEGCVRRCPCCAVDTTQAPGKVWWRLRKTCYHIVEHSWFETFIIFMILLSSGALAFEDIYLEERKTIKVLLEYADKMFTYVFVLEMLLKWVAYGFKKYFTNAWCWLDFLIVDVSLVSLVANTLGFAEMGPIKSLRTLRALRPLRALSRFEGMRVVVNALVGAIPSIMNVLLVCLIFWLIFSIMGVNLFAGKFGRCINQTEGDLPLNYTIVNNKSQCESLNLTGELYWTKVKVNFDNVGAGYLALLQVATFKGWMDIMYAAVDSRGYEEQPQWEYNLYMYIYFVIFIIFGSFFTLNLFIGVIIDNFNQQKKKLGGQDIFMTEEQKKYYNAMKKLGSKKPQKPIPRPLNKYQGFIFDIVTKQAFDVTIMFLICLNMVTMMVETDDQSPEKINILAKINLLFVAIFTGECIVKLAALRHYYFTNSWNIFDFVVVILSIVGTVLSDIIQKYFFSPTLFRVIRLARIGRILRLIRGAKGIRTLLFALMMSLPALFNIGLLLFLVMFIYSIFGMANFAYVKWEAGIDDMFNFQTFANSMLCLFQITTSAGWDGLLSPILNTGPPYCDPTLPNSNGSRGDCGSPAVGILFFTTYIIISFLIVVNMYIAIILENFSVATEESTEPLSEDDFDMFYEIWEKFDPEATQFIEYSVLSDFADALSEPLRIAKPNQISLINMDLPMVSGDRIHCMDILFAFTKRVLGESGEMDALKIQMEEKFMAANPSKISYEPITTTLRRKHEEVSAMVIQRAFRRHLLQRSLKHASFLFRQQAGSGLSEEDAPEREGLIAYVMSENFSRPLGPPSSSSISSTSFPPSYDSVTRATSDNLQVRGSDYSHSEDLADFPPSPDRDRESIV

`CC[C@H](C)[C@@H]1NC(=O)[C@@H]2CSSC[C@@H]3NC(=O)[C@H](C(C)C)NC(=O)[C@H](CC(C)C)NC(=O)[C@H](CC(N)=O)NC(=O)[C@@H]4CCCN4C(=O)[C@H](CCCNC(=N)N)NC(=O)[C@H](CSSC[C@H](NC(=O)[C@@H](N)CC(=O)O)C(=O)N[C@@H](CC(C)C)C(=O)NCC(=O)N[C@@H](C)C(=O)N[C@@H](CC(C)C)C(=O)N[C@@H](CCCNC(=N)N)C(=O)N[C@@H](CCCCN)C(=O)N2)NC(=O)[C@H](CSSC[C@@H](C(=O)N[C@@H](CCCCN)C(=O)N[C@@H](Cc2ccc(O)cc2)C(=O)N[C@H](C(=O)N[C@@H](Cc2ccccc2)C(=O)O)C(C)C)NC(=O)[C@H](Cc2c[nH]c4ccccc24)NC(=O)[C@H](CCCNC(=N)N)NC(=O)[C@H](Cc2c[nH]cn2)NC(=O)[C@H]([C@@H](C)O)NC(=O)[C@H](CCCNC(=N)N)NC(=O)[C@H](CO)NC3=O)NC(=O)[C@H](CCCCN)NC(=O)[C@H](CC(=O)O)NC(=O)[C@H](Cc2c[nH]cn2)NC(=O)[C@H](CC(=O)O)NC(=O)[C@@H]2CCCN2C1=O` [compound 864] (H-DCLGALRKCIPDHDKCCRPNLVCSRTHRWCKYVF-OH; disulfide 2-17, 9-23, 16-30): the IC50 on hNav1.3 was 3.9 µM; on hNav1.7, > 5 µM; at hNav1.5, > 5 µM.
As for `CC[C@H](C)[C@@H]1NC(=O)[C@H](CC(=O)O)NC(=O)[C@@H]2CCCN2C(=O)[C@H]([C@@H](C)CC)NC(=O)[C@@H]2CSSC[C@@H]3NC(=O)[C@H](C(C)C)NC(=O)[C@H](CC(C)C)NC(=O)[C@H](CC(N)=O)NC(=O)[C@@H]4CCCN4C(=O)[C@H](CCCNC(=N)N)NC(=O)[C@H](CSSC[C@H](NC(=O)[C@@H](N)CC(=O)O)C(=O)N[C@@H](CC(C)C)C(=O)NCC(=O)N[C@@H](C)C(=O)N[C@@H](CC(C)C)C(=O)N[C@@H](CCCNC(=N)N)C(=O)N[C@@H](CCCCN)C(=O)N2)NC(=O)[C@H](CSSC[C@@H](C(=O)N[C@@H](CCCCN)C(=O)N[C@@H](Cc2ccc(O)cc2)C(=O)N[C@H](C(=O)N[C@@H](Cc2ccccc2)C(=O)O)C(C)C)NC(=O)[C@H](Cc2c[nH]c4ccccc24)NC(=O)[C@H](CCCNC(=N)N)NC(=O)[C@H](Cc2c[nH]cn2)NC(=O)[C@H]([C@@H](C)O)NC(=O)[C@H](CCCNC(=N)N)NC(=O)[C@H](CO)NC3=O)NC(=O)[C@H](CCCCN)NC(=O)[C@H](CC(=O)O)NC1=O` [compound 865] (H-DCLGALRKCIPDIDKCCRPNLVCSRTHRWCKYVF-OH; disulfide 2-17, 9-23, 16-30), the IC50 on hNav1.3, on hNav1.7 and on hNav1.5 was > 5 µM throughout.
Turning to `CC[C@H](C)[C@@H]1NC(=O)[C@@H]2CSSC[C@@H]3NC(=O)[C@H](C(C)C)NC(=O)[C@H](CC(C)C)NC(=O)[C@H](CC(N)=O)NC(=O)[C@@H]4CCCN4C(=O)[C@H](CCCNC(=N)N)NC(=O)[C@H](CSSC[C@H](NC(=O)[C@@H](N)CC(=O)O)C(=O)N[C@@H](CC(C)C)C(=O)NCC(=O)N[C@@H](C)C(=O)N[C@@H](CC(C)C)C(=O)N[C@@H](CCCNC(=N)N)C(=O)N[C@@H](CCCCN)C(=O)N2)NC(=O)[C@H](CSSC[C@@H](C(=O)N[C@@H](CCCCN)C(=O)N[C@@H](Cc2ccc(O)cc2)C(=O)N[C@H](C(=O)N[C@@H](Cc2ccccc2)C(=O)O)C(C)C)NC(=O)[C@H](Cc2c[nH]c4ccccc24)NC(=O)[C@H](CCCNC(=N)N)NC(=O)[C@H](Cc2c[nH]cn2)NC(=O)[C@H]([C@@H](C)O)NC(=O)[C@H](CCCNC(=N)N)NC(=O)[C@H](CO)NC3=O)NC(=O)[C@H](CCCCN)NC(=O)[C@H](CC(=O)O)NC(=O)[C@H](CCCCN)NC(=O)[C@H](CC(=O)O)NC(=O)[C@@H]2CCCN2C1=O` [compound 866] (H-DCLGALRKCIPDKDKCCRPNLVCSRTHRWCKYVF-OH; disulfide 2-17, 9-23, 16-30), the IC50 at hNav1.3 was 2.3 µM; on hNav1.7, > 5 µM; on hNav1.5 it was > 5 µM.
For `CC[C@H](C)[C@@H]1NC(=O)[C@@H]2CSSC[C@@H]3NC(=O)[C@H](C(C)C)NC(=O)[C@H](CC(C)C)NC(=O)[C@H](CC(N)=O)NC(=O)[C@@H]4CCCN4C(=O)[C@H](CCCNC(=N)N)NC(=O)[C@H](CSSC[C@H](NC(=O)[C@@H](N)CC(=O)O)C(=O)N[C@@H](CC(C)C)C(=O)NCC(=O)N[C@@H](C)C(=O)N[C@@H](CC(C)C)C(=O)N[C@@H](CCCNC(=N)N)C(=O)N[C@@H](CCCCN)C(=O)N2)NC(=O)[C@H](CSSC[C@@H](C(=O)N[C@@H](CCCCN)C(=O)N[C@@H](Cc2ccc(O)cc2)C(=O)N[C@H](C(=O)N[C@@H](Cc2ccccc2)C(=O)O)C(C)C)NC(=O)[C@H](Cc2c[nH]c4ccccc24)NC(=O)[C@H](CCCNC(=N)N)NC(=O)[C@H](Cc2c[nH]cn2)NC(=O)[C@H]([C@@H](C)O)NC(=O)[C@H](CCCNC(=N)N)NC(=O)[C@H](CO)NC3=O)NC(=O)[C@H](CCCCN)NC(=O)[C@H](CC(=O)O)NC(=O)[C@H](CC(C)C)NC(=O)[C@H](CC(=O)O)NC(=O)[C@@H]2CCCN2C1=O` [compound 867] (H-DCLGALRKCIPDLDKCCRPNLVCSRTHRWCKYVF-OH; disulfide 2-17, 9-23, 16-30), the IC50 on hNav1.3 was 4.9 µM; on hNav1.7 it was > 5 µM; at hNav1.5, > 5 µM.
On to `CC[C@H](C)[C@@H]1NC(=O)[C@@H]2CSSC[C@@H]3NC(=O)[C@H](C(C)C)NC(=O)[C@H](CC(C)C)NC(=O)[C@H](CC(N)=O)NC(=O)[C@@H]4CCCN4C(=O)[C@H](CCCNC(=N)N)NC(=O)[C@H](CSSC[C@H](NC(=O)[C@@H](N)CC(=O)O)C(=O)N[C@@H](CC(C)C)C(=O)NCC(=O)N[C@@H](C)C(=O)N[C@@H](CC(C)C)C(=O)N[C@@H](CCCNC(=N)N)C(=O)N[C@@H](CCCCN)C(=O)N2)NC(=O)[C@H](CSSC[C@@H](C(=O)N[C@@H](CCCCN)C(=O)N[C@@H](Cc2ccc(O)cc2)C(=O)N[C@H](C(=O)N[C@@H](Cc2ccccc2)C(=O)O)C(C)C)NC(=O)[C@H](Cc2c[nH]c4ccccc24)NC(=O)[C@H](CCCNC(=N)N)NC(=O)[C@H](Cc2c[nH]cn2)NC(=O)[C@H]([C@@H](C)O)NC(=O)[C@H](CCCNC(=N)N)NC(=O)[C@H](CO)NC3=O)NC(=O)[C@H](CCCCN)NC(=O)[C@H](CC(=O)O)NC(=O)[C@H](CCSC)NC(=O)[C@H](CC(=O)O)NC(=O)[C@@H]2CCCN2C1=O` [compound 868] (H-DCLGALRKCIPDMDKCCRPNLVCSRTHRWCKYVF-OH; disulfide 2-17, 9-23, 16-30), for which the IC50 at hNav1.3, on hNav1.7 and at hNav1.5 was > 5 µM throughout.
With `CC[C@H](C)[C@@H]1NC(=O)[C@@H]2CSSC[C@@H]3NC(=O)[C@H](C(C)C)NC(=O)[C@H](CC(C)C)NC(=O)[C@H](CC(N)=O)NC(=O)[C@@H]4CCCN4C(=O)[C@H](CCCNC(=N)N)NC(=O)[C@H](CSSC[C@H](NC(=O)[C@@H](N)CC(=O)O)C(=O)N[C@@H](CC(C)C)C(=O)NCC(=O)N[C@@H](C)C(=O)N[C@@H](CC(C)C)C(=O)N[C@@H](CCCNC(=N)N)C(=O)N[C@@H](CCCCN)C(=O)N2)NC(=O)[C@H](CSSC[C@@H](C(=O)N[C@@H](CCCCN)C(=O)N[C@@H](Cc2ccc(O)cc2)C(=O)N[C@H](C(=O)N[C@@H](Cc2ccccc2)C(=O)O)C(C)C)NC(=O)[C@H](Cc2c[nH]c4ccccc24)NC(=O)[C@H](CCCNC(=N)N)NC(=O)[C@H](Cc2c[nH]cn2)NC(=O)[C@H]([C@@H](C)O)NC(=O)[C@H](CCCNC(=N)N)NC(=O)[C@H](CO)NC3=O)NC(=O)[C@H](CCCCN)NC(=O)[C@H](CC(=O)O)NC(=O)[C@H](CCC(N)=O)NC(=O)[C@H](CC(=O)O)NC(=O)[C@@H]2CCCN2C1=O` [compound 869] (H-DCLGALRKCIPDQDKCCRPNLVCSRTHRWCKYVF-OH; disulfide 2-17, 9-23, 16-30), the IC50 at hNav1.3, at hNav1.7 and on hNav1.5 was > 5 µM each time.
